Converted amounts (≈) assume the structure as drawn.

In this test the test system is Mycobacterium tuberculosis. As to the kind of experiment: Antimycobacterial activity against Mycobacterium bovis BCG Pasteur incubated for 10 days by spectrophotometric based assay. It counts as functional. The settings on record: variant bovis BCG, 240 h.
Molecule `CCCCCCCCC(CCC1CCCC1)C(N)=O` (stereo not given) gave an MIC99 of 5400 µM (≈ 1440 µg/mL).

With `O=C(O)C(CCCCCCCF)CCC1CCCC1` (stereo not given), the MIC99 turned out to be 1600 µM (≈ 436 µg/mL).

As to `CCCCCCCCC(CCC1CCCC1)C(=O)NCC` (stereo not given), the MIC99 came out at 4400 µM (≈ 1300 µg/mL).

`CCCCCCCCC(COC1CCCC1)C(=O)O` (stereo not given) registered an MIC99 of 2200 µM (≈ 595 µg/mL).

In turn, `CCCCCCOCC(CCC1CCCC1)C(=O)O` (stereo not given) showed an MIC99 of 1100 µM (≈ 297 µg/mL).

`O=C1c2ccccc2C(=O)N1c1ccc(S(=O)(=O)Nc2ccncn2)cc1` returned an MIC99 of 1900 µM (≈ 723 µg/mL).

`CCCCCCCCC(CCC1CCCN1)C(=O)O` (stereo not given) returned an MIC99 of 5100 µM (≈ 1370 µg/mL).

`CCCCCCCCC(CCC1CCCO1)C(=O)O` (stereo not given) came in with an MIC99 of 2500 µM (≈ 676 µg/mL).

As to `O=C1c2ccccc2C(=O)N1c1ccc(S(=O)(=O)Nc2ccccn2)cn1`, the MIC99 is 1900 µM (≈ 723 µg/mL).

`CCCCCCCCC(CCC1CCCC1)C(=O)OC` (stereo not given) had an MIC99 of 1500 µM (≈ 424 µg/mL).

Molecule `O=C1c2ccccc2C(=O)N1c1cnc(S(=O)(=O)Nc2ccccn2)cn1` showed an MIC99 of 900 µM (≈ 343 µg/mL).

As to `O=C1c2ccccc2C(=O)N1c1ccc(S(=O)(=O)Nc2cnccn2)cc1`, the MIC99 is 1000 µM (≈ 380 µg/mL).

As to `CCCCCCCCC(CCC1=CCC=C1)C(=O)O` (stereo not given), the MIC99 was 6000 µM (≈ 1590 µg/mL).

With `CCCOCOCCC(CCC1CCCC1)C(=O)O` (stereo not given), the MIC99 was determined as 500 µM (≈ 136 µg/mL).

Molecule `CCCCCCCCC(CCC1CCCS1)C(=O)O` (stereo not given) had an MIC99 of 5400 µM (≈ 1550 µg/mL).

Source of the values: ChEMBL document CHEMBL4613212, “Insights of synthetic analogues of anti-leprosy agents” (Bioorg Med Chem, 2019).
